Our source for the TGI and GI50 values is PubChem BioAssay (NCI).

Molecules are shown by their SMILES.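 Briefly, cells in 96-well plates were exposed to five compound concentrations for 48 h, and endpoints were estimated by linear interpolation. Abbreviation: GI50, concentration required for 50% inhibition of growth. TGI marks complete inhibition of growth.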 A value given as a limit tells only on which side of the number the result lay.

For orientation: TGI means the concentration at which net growth stops. Usually GI50 stands for the concentration that inhibits growth by half.

What all share (test): DTP human tumour cell line panel, 48 h
Assay [1] relates to SK-MEL-28 melanoma.
Assay [2] deals with UACC-62 melanoma.
For assay [3], the system named is OVCAR-5 ovarian.
Assay [4] deals with SN12C renal.
For assay [5], the system named is MDA-MB-435.
For assay [6], the system named is PC-3 prostate.
For assay [7], the system named is HOP-92 NSCLC.
Assay [8] deals with NCI-H522 lung.
Assay [9] concerns MDA-MB-231 breast.
The subject of assay [10] is ACHN renal.

Consider `COc1ccc(C(=O)c2ccc(-n3cc(/C=C/[N+](=O)[O-])c4ccccc43)cc2)cc1`, for which the TGI in assay [1] was over 89.2 µM; in assay [2], 28.5 µM; in assay [3], over 100 µM; in assay [4] it was 42.7 µM; in assay [5] it was 49.3 µM; in [6] it was 49.9 µM. Also, the TGI in assay [7] came to 34.9 µM; in [8], 33.8 µM; in assay [9], 43.9 µM; in assay [10], 52 µM.

On to `CC1=C2NCN(C)N=C2C(C#N)(C#N)C1(C#N)C#N`, for which the TGI in [1] is 49.9 µM; in assay [2] it was 46.8 µM; in assay [3], over 91.7 µM; in [4], 34.9 µM; in assay [5] it was 46.6 µM; in assay [6] it was 72.8 µM. Moreover, the TGI worked out at 32 µM in assay [7], 28.5 µM in assay [8], 36.2 µM in assay [9] and 33 µM in assay [10].

Turning to `CC(C)C1CC(CO)(CNc2cc(Cl)nc(N)n2)C1` (centres undefined), the TGI in assay [1], in assay [2], in assay [3], in assay [4], in assay [5] and in [6] was over 100 µM in each case. The TGI in assay [7], in assay [8], in assay [9] and in assay [10] was over 100 µM each time.

In the case of `O=C(CSc1nc2ccc(I)cc2c(=O)n1Cc1ccccc1)NN1C(=O)CCC1=O`, the TGI in assay [1], in assay [2], in assay [3], in assay [4], in [5] and in [6] was over 100 µM each time. Further, the TGI in assay [7] is 64.7 µM; in [8], 47.1 µM; in assay [9] it was over 100 µM; in assay [10], 34.6 µM.

For `COC(=O)c1ccc(/C=C2\CCc3ccccc3C2=O)cc1`, the TGI in assay [1], in [2], in [3], in assay [4], in assay [5] and in assay [6] was over 100 µM in each case. Besides, the TGI in assay [7], in assay [8], in [9] and in assay [10] was over 100 µM in each case.

Take `Cc1cn([C@H]2[C@@H](CO)C[C@H]2O)c(=O)[nH]c1=O`: the TGI in assay [1], in assay [3], in assay [4], in assay [5], in assay [6] and in assay [7] was over 100 µM throughout. Further, the TGI in assay [8], in assay [9] and in [10] was over 100 µM in each case.

Regarding `O=c1oc2ccc(Cl)cc2cc1-c1cn2ccsc2n1`, the TGI is over 100 µM in assay [1]; over 100 µM in assay [2]; over 100 µM in assay [4]; over 100 µM in assay [5]; over 100 µM in assay [6]; 64.3 µM in assay [7]. For the same molecule, the TGI in [8] is 47.9 µM; in [9] it was over 100 µM; in assay [10], over 100 µM.

For `Nc1ncc(/C=N/O)c(NCC2(CO)CC(CCc3ccccc3)C2)n1` (centres undefined), the TGI in assay [2] was found to be 33.1 µM; in assay [3], 44.1 µM; in assay [4] it was 33 µM; in [5], 23.8 µM; in [6], 26.8 µM; in assay [7], 30.2 µM. Also, the TGI in [8] amounted to 20.9 µM; in assay [9] it was 21.8 µM.

As for `CC/C(Cl)=N\OC(=O)Nc1ccc(F)cc1F`, the TGI in [1] worked out at 35.9 µM; in [2] it was 32.3 µM; in assay [3], 35.1 µM; in [4] it was 11.5 µM; in assay [5], 34.2 µM; in [6], 33.3 µM. For the same molecule, the TGI in assay [7] is 4.34 µM; in assay [8], 3.65 µM; in [9], 36.7 µM; in [10], 3.78 µM.

On to `O=S1(=O)CCN(c2ccccc2CC(c2c[nH]c3ccccc23)c2c[nH]c3ccccc23)CC1`, for which the TGI in [1] was 28.8 µM; in assay [2], 18.9 µM; in assay [3], 54.9 µM; in [4], 24.1 µM; in assay [5], over 31.7 µM; in [6], 13.2 µM. Further, the TGI is 25.3 µM in assay [7], 17.2 µM in [8], 25.1 µM in assay [9] and over 91.7 µM in assay [10].

In the case of `CCN(CC)CCN(C)CCc1ccc(Br)cc1`, the TGI in assay [1], in assay [3], in assay [4], in assay [5], in [6] and in assay [7] was over 100 µM each time. In addition, the TGI in assay [8], in assay [9] and in assay [10] was over 100 µM each time.

For the molecule `COc1cc(-n2cc(-c3cc(O)c(C/C=C(\C)CCC=C(C)C)c(O)c3)nn2)cc2c1O[C@]1(C)CC[C@@H](O)C(C)(C)[C@H]1C2`, the GI50 in assay [1] is 0.754 µM; in assay [2] it was 0.23 µM; in assay [3] it was 2.35 µM; in assay [4] it was 3.86 µM; in assay [5], 1.22 µM; in assay [6] it was 0.598 µM. For the same molecule, the GI50 in assay [7] is 1.03 µM; in assay [8], 1.19 µM; in assay [9] it was 0.275 µM; in [10], 1.79 µM. The TGI in assay [1] is 27.6 µM; in [2], 2.98 µM; in [3] it was 21.5 µM; in assay [4] it was over 41.4 µM; in assay [5], 27.6 µM; in [6], over 84.3 µM. Also, the TGI was found to be 17.3 µM in assay [7], 4.35 µM in assay [8], 3.24 µM in assay [9] and 26.6 µM in [10].

On to `CC1=C2C(=O)c3ccccc3C(=O)[C@H]2C[C@@H](N2CCCCCC2=O)O1`, for which the TGI in assay [1] worked out at 35.7 µM; in assay [2] it was 37.4 µM; in assay [3], 30.4 µM; in [4] it was 34.5 µM; in assay [5], 29.7 µM; in assay [6], 44.4 µM. Further, the TGI in assay [7] came out at 36 µM; in [8], 38.9 µM; in [9], 53.5 µM; in [10], 51.7 µM.

Consider `CO[P@]1(=O)O[C@@H](c2ccccc2)[C@H](O)[C@@]1(O)c1ccccc1`, for which the total growth inhibition concentration (TGI) in assay [1], in assay [2], in assay [3], in assay [4], in assay [5] and in assay [6] was over 100 µM in each case. Moreover, the total growth inhibition concentration (TGI) in assay [7], in assay [8], in [9] and in assay [10] was over 100 µM throughout.

As for `NC(=O)C1=CC2C3C=CC2(O)C(=O)OC3O1` (centres undefined), the TGI in [1] was 8.48 µM; in assay [2], 7.74 µM; in [3], over 64.5 µM; in assay [4], 20 µM; in [5] it was 16.5 µM; in assay [6], 37.7 µM. Besides, the TGI in assay [7] came to 6.73 µM; in [8] it was 4.31 µM; in [9] it was 32 µM; in [10], 15.7 µM.

As to `CC(=O)CC1(C)OC(N)=C(C#N)C1(C#N)C#N` (centres undefined), the TGI in assay [1], in assay [2], in [3], in assay [4], in [5] and in [6] was over 100 µM each time. Besides, the total growth inhibition concentration (TGI) in [7], in [8], in [9] and in assay [10] was over 100 µM in each case.

For `CC(C)(C)c1ccc(-c2nnc(-c3cc(C#N)cc(-c4nnc(-c5ccc(C(C)(C)C)cc5)o4)c3)o2)cc1`, the TGI in assay [1], in [2], in assay [3], in [4], in [5] and in [6] was over 100 µM each time. The TGI in assay [7], in [8], in [9] and in assay [10] was over 100 µM each time.

In the case of `CC(C)(C)c1c(C(C)(C)C)c(=O)c1=O`, the TGI in [1], in assay [2], in assay [3], in assay [4], in assay [5] and in assay [6] was over 100 µM throughout. Besides, the TGI in assay [7], in [9] and in [10] was over 100 µM each time.

Take `O=P(O)(O)CN1CCNCCN(CP(=O)(O)O)CCNCC1`: the TGI in assay [1], in assay [2], in assay [3], in assay [4], in assay [5] and in assay [6] was over 100 µM in each case. Also, the TGI in [7] was 9.76 µM; in assay [8] it was over 100 µM; in assay [9] it was over 100 µM; in [10] it was over 100 µM.

Turning to `CCOC(=O)c1nc2ccccc2nc1NCc1ccc(Cl)cc1Cl`, the TGI in assay [2], in [3], in assay [5], in [6], in [7] and in [8] was over 100 µM each time. Also, the TGI in [9] and in assay [10] was over 100 µM throughout.

For the molecule `O=C(/C=C/c1ccco1)c1cccc(C(=O)/C=C/c2ccco2)n1`, the TGI was 67.7 µM in assay [1]; over 100 µM in assay [2]; over 81.9 µM in assay [3]; 32 µM in assay [4]; over 100 µM in assay [5]; over 100 µM in assay [6]. The TGI in [7] is over 81.9 µM; in assay [8], 19.6 µM; in assay [9], over 100 µM; in assay [10], 72.7 µM.

With `COC(=O)c1c(OC)cc2cc3c(c(O)c2c1C)C(=O)C1(O)C(=O)C=C(OC)C(OC(=O)CC(C)N)=C1C3=O` (centres undefined), the TGI in [1], in assay [2], in assay [3], in [4], in assay [5] and in [6] was over 100 µM in each case. Besides, the TGI in assay [7] was over 100 µM; in [8], over 100 µM; in assay [9], 43.4 µM; in assay [10], over 100 µM.

Regarding `O=C(c1ccco1)C1CC(c2ccc3ccccc3c2O)=NN1c1ccc([N+](=O)[O-])cc1[N+](=O)[O-]` (centres undefined), the TGI in assay [1], in [2], in assay [3], in [4], in [5] and in assay [6] was over 100 µM each time. The TGI in [7] was 76.1 µM; in assay [8], 47.5 µM; in assay [9] it was 68.7 µM; in [10], over 100 µM.

For the molecule `Cn1c(=O)sc2cc(C(=S)N3CCOCC3)ccc21`, the TGI in [1], in assay [2], in assay [3], in assay [4], in assay [5] and in assay [6] was over 100 µM in each case. For the same molecule, the TGI in [7], in [8], in assay [9] and in [10] was over 100 µM throughout.

Consider `COC1=CC(=O)C2=C(C1=O)[C@H]1CC[C@]3(C)[C@@H](OC(C)=O)CC[C@H]3[C@@H]1CC2`, for which the TGI in [1] was over 100 µM; in assay [3], over 100 µM; in assay [4], over 100 µM; in assay [5], 38.2 µM; in assay [6] it was over 100 µM; in assay [7], 24 µM. The TGI was over 100 µM in [8], 35.3 µM in assay [9] and over 100 µM in assay [10].

With `COc1ccc(-c2nc(-c3cnccn3)n(C3OC(CO)C(O)C(O)C3O)n2)cc1` (centres undefined), the TGI in [1], in assay [2], in assay [3], in assay [4], in assay [5] and in assay [6] was over 100 µM in each case. The TGI in assay [7], in assay [8] and in [9] was over 100 µM each time.

As for `COc1ccc(C=Nc2ccc(-c3nc4ccccc4[nH]3)cc2)cc1OC`, the TGI in [1], in assay [3], in assay [4], in assay [5], in [6] and in assay [7] was over 100 µM in each case. The TGI in assay [8], in assay [9] and in assay [10] was over 100 µM each time.
